Here are results for 34 molecules from patent publication US10933063B2 (priority 2017, dated 2021).

pIC50: −log10 of the molar value.

For this experiment, the target named is BTK (Homo sapiens (Human), UniProt Q06187). The experiment can be described thus: biochemical.
Chain of BTK (Q06187 whole entry, looked up, species assumed): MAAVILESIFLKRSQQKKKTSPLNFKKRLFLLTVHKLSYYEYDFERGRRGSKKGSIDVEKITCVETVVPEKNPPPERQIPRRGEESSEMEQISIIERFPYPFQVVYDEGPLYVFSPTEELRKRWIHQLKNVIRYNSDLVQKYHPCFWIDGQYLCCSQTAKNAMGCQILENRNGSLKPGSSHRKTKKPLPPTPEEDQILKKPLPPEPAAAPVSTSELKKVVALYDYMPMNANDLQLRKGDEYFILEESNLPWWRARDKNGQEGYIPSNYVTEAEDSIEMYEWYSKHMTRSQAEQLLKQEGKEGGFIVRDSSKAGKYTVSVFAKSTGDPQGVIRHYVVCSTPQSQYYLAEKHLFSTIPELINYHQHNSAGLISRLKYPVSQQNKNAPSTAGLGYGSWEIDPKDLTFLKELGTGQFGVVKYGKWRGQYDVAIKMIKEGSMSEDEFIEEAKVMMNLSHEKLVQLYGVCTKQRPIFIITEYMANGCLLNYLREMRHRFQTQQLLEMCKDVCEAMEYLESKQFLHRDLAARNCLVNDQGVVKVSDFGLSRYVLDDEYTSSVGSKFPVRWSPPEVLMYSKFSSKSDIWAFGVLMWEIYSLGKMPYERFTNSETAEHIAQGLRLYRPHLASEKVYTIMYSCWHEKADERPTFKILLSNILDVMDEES
Regarding `COc1cccc(Oc2ccc(-c3nc([C@@H]4CCCN(C(=O)/C(C#N)=C/C(C)(C)C)C4)n4ccncc34)cc2)c1F` [Example 2, (R,E)-2-(3-(1-(4-(2-Fluoro-3-methoxyphenoxy)phenyl)imidazo[1,5-a]pyrazin-3-yl)piperidine-1-carbonyl)-4,4-dimethylpent-2-enenitrile], the pIC50 was 7.00 to 8.00.

Turning to `COc1cccc(Oc2ccc(-c3nc([C@@H]4CCCN(C(=O)C(N)=O)C4)n4ccncc34)cc2)c1F` [Example 3, (R)-2-(3-(1-(4-(2-fluoro-3-methoxyphenoxy)phenyl)imidazo[1,5-a]pyrazin-3-yl)piperidin-1-yl)-2-oxoacetamide], the pIC50 was 5.00 to 6.00.

`C=CC(=O)N1CCC[C@H]1c1nc(-c2ccc(Oc3ccccc3)nc2)c2cnccn12` [Example 4, (S)-1-(2-(1-(6-Phenoxypyridin-3-yl)imidazo[1,5-a]pyrazin-3-yl)pyrrolidin-1-yl)prop-2-en-1-one] showed a pIC50 of 6.00 to 7.00.

`CC#CC(=O)N1CCC[C@H]1c1nc(-c2ccc(Oc3cccc(F)c3)cc2)c2cnccn12` [Example 7, (S)-1-(2-(1-(4-(3-fluorophenoxy)phenyl)imidazo[1,5-a]pyrazin-3-yl)pyrrolidin-1-yl)but-2-yn-1-one] gave a pIC50 of 7.00 to 8.00.

In turn, `C=CC(=O)N1CCC[C@H]1c1nc(-c2ccc(Oc3ccc(OC)cc3)cc2)c2cnccn12` [Example 9, (S)-1-(2-(1-(4-(4-methoxyphenoxy)phenyl)imidazo[1,5-a]pyrazin-3-yl)pyrrolidin-1-yl)prop-2-en-1-one] gave a pIC50 of 7.00 to 8.00.

The molecule `C=CC(=O)N1CCC[C@H]1c1nc(-c2ccc(Oc3cccc(C)c3)cc2)c2cnccn12` [Example 10, (S)-1-(2-(1-(4-(m-tolyloxy)phenyl)imidazo[1,5-a]pyrazin-3-yl)pyrrolidin-1-yl)prop-2-en-1-one] showed a pIC50 of 7.00 to 8.00.

`C=CC(=O)N1CCC[C@H]1c1nc(-c2ccc(Oc3cccc(F)c3)cc2)c2cnccn12` [Example 11, (S)-1-(2-(1-(4-(3-fluorophenoxy)phenyl)imidazo[1,5-a]pyrazin-3-yl)pyrrolidin-1-yl)prop-2-en-1-one] had a pIC50 of 7.00 to 8.00.

On to `C=CC(=O)N1CCC[C@H]1c1nc(-c2ccc(Oc3cccc(C)c3C)cc2)c2cnccn12` [Example 12, (S)-1-(2-(1-(4-(2,3-dimethylphenoxy)phenyl)imidazo[1,5-a]pyrazin-3-yl)pyrrolidin-1-yl)prop-2-en-1-one], for which the pIC50 was 7.00 to 8.00.

In turn, `C=CC(=O)N1CCC[C@H]1c1nc(-c2ccc(Oc3ccccc3)cc2Cl)c2cnccn12` [Example 13, (S)-1-(2-(1-(2-chloro-4-phenoxyphenyl)imidazo[1,5-a]pyrazin-3-yl)pyrrolidin-1-yl)prop-2-en-1-one] gave a pIC50 of 7.00 to 8.00.

On to `CC#CC(=O)N1CCC[C@H]1c1nc(-c2ccc(Oc3ccccc3)cc2Cl)c2cnccn12` [Example 14, (S)-1-(2-(1-(2-chloro-4-phenoxyphenyl)imidazo[1,5-a]pyrazin-3-yl)pyrrolidin-1-yl)but-2-yn-1-one], for which the pIC50 is 5.00 to 6.00.

`CC#CC(=O)N1CCC[C@H]1c1nc(-c2ccc(Oc3cccc(OC)c3C)cc2)c2cnccn12` [Example 21, (S)-1-(2-(1-(4-(3-methoxy-2-methylphenoxy)phenyl)imidazo[1,5-a]pyrazin-3-yl)pyrrolidin-1-yl)but-2-yn-1-one] showed a pIC50 of 6.00 to 7.00.

The molecule `C=CC(=O)N1CCC[C@H]1c1nc(-c2ccc(Oc3ccccc3OC)cc2)c2cnccn12` [Example 23, (S)-1-(2-(1-(4-(2-methoxyphenoxy)phenyl)imidazo[1,5-a]pyrazin-3-yl)pyrrolidin-1-yl)prop-2-en-1-one] had a pIC50 of 7.00 to 8.00.

`CC#CC(=O)N1CCC[C@H]1c1nc(-c2ccc(Oc3ccccc3OC)cc2)c2cnccn12` [Example 24, (S)-1-(2-(1-(4-(2-methoxyphenoxy)phenyl)imidazo[1,5-a]pyrazin-3-yl)pyrrolidin-1-yl)but-2-yn-1-one] had a pIC50 of 5.00 to 6.00.

Turning to `CC#CC(=O)N1CCCC[C@H]1c1nc(-c2ccc(Oc3cccc(OC)c3F)cc2)c2cnccn12` [Example 25, (S)-1-(2-(1-(4-(2-fluoro-3-methoxyphenoxy)phenyl)imidazo[1,5-a]pyrazin-3-yl)piperidin-1-yl)but-2-yn-1-one], the pIC50 was 7.00 to 8.00.

As for `C=CC(=O)N1CCC[C@H]1c1nc(-c2ccc(Oc3ccccc3)c(Cl)c2)c2cnccn12` [Example 26, (S)-1-(2-(1-(3-chloro-4-phenoxyphenyl)imidazo[1,5-a]pyrazin-3-yl)pyrrolidin-1-yl)prop-2-en-1-one], the pIC50 is 7.00 to 8.00.

In the case of `COc1cccc(Oc2ccc(-c3nc([C@@H]4CCCN4C(=O)/C(C#N)=C/C(C)(C)C)n4ccncc34)cc2)c1F` [Example 31, (S,E)-2-(2-(1-(4-(2-fluoro-3-methoxyphenoxy)phenyl)imidazo[1,5-a]pyrazin-3-yl)pyrrolidine-1-carbonyl)-4,4-dimethylpent-2-enenitrile], the pIC50 was 6.00 to 7.00.

Consider `COc1cccc(Oc2ccc(-c3nc([C@@H]4CCCN4Cc4ccccc4)n4ccncc34)cc2)c1F` [Example 32, (S)-3-(1-benzylpyrrolidin-2-yl)-1-(4-(2-fluoro-3-methoxyphenoxy)phenyl)imidazo[1,5-a]pyrazine], for which the pIC50 was 5.00 to 6.00.

As for `COc1cccc(Oc2ccc(-c3nc([C@@H]4CCCN4C(=O)C(N)=O)n4ccncc34)cc2)c1F` [Example 33], the pIC50 was 5.00 to 6.00.

With `CC#CC(=O)N1CCC[C@H]1c1nc(-c2ccc(Oc3cccc(OC)c3F)cc2)c2cnccn12` [Example 34, (S)-1-(2-(1-(4-(2-fluoro-3-methoxyphenoxy)phenyl)imidazo[1,5-a]pyrazin-3-yl)pyrrolidin-1-yl)but-2-yn-1-one], the pIC50 was 7.00 to 8.00.

In turn, `CC#CC(=O)N1CCC[C@H]1c1nc(-c2ccc(Oc3cccc(OC)c3F)cc2)c2c(O)nccn12` [Example 35, (S)-1-(2-(1-(4-(2-fluoro-3-methoxyphenoxy)phenyl)-8-hydroxyimidazo[1,5-a]pyrazin-3-yl)pyrrolidin-1-yl)but-2-yn-1-one] had a pIC50 of 5.00 to 6.00.

Take `C=CC(=O)N1CCC[C@H]1c1nc(-c2ccc(Oc3cccc(OC)c3F)cc2)c2c(O)nccn12` [Example 36, (S)-1-(2-(1-(4-(2-fluoro-3-methoxyphenoxy)phenyl)-8-hydroxyimidazo[1,5-a]pyrazin-3-yl)pyrrolidin-1-yl)prop-2-en-1-one]: the pIC50 was 7.00 to 8.00.

`C=CC(=O)N1CCC[C@H]1c1nc(-c2ccc(Oc3cccc(OC)c3F)cc2)c2c(C(N)=O)nccn12` [Example 37, (S)-3-(1-acryloylpyrrolidin-2-yl)-1-(4-(2-fluoro-3-methoxyphenoxy)phenyl)imidazo[1,5-a]pyrazine-8-carboxamide] had a pIC50 of 5.00 to 6.00.

For the molecule `CC#CC(=O)N1CCC[C@H]1c1nc(-c2ccc(Oc3cccc(OC(C)C)c3)cc2)c2cnccn12` [Example 39, (S)-1-(2-(1-(4-(3-isopropoxyphenoxy)phenyl)imidazo[1,5-a]pyrazin-3-yl)pyrrolidin-1-yl)but-2-yn-1-one], the pIC50 was 6.00 to 7.00.

As to `CC#CC(=O)N1CCCC[C@H]1c1nc(-c2ccc(Oc3cccc(C)c3)cc2)c2c(C)nccn12` [Example 41, (S)-1-(2-(8-methyl-1-(4-(m-tolyloxy)phenyl)imidazo[1,5-a]pyrazin-3-yl)piperidin-1-yl)but-2-yn-1-one], the pIC50 is 7.00 to 8.00.

The molecule `C=CC(=O)N1CCCC[C@H]1c1nc(-c2ccc(Oc3cccc(Cl)c3F)cc2)c2c(C)nccn12` [Example 42, (S)-1-(2-(1-(4-(3-chloro-2-fluorophenoxy)phenyl)-8-methylimidazo[1,5-a]pyrazin-3-yl)piperidin-1-yl)prop-2-en-1-one] gave a pIC50 of 7.00 to 8.00.

`CC#CC(=O)N1CCCC[C@H]1c1nc(-c2ccc(Oc3cccc(Cl)c3F)cc2)c2c(C)nccn12` [Example 43, (S)-1-(2-(1-(4-(3-chloro-2-fluorophenoxy)phenyl)-8-methylimidazo[1,5-a]pyrazin-3-yl)piperidin-1-yl)but-2-yn-1-one] had a pIC50 of 7.00 to 8.00.

Molecule `C=CC(=O)N1CCCC[C@H]1c1nc(-c2ccc(Oc3cccc(F)c3)cc2)c2cnccn12` [Example 45, (S)-1-(2-(1-(4-(3-fluorophenoxy)phenyl)imidazo[1,5-a]pyrazin-3-yl)piperidin-1-yl)prop-2-en-1-one] showed a pIC50 of 7.00 to 8.00.

The molecule `CC#CC(=O)N1CCCC[C@H]1c1nc(-c2ccc(Oc3cccc(Cl)c3F)cc2)c2cnccn12` [Example 47, (S)-1-(2-(1-(4-(3-chloro-2-fluorophenoxy)phenyl)imidazo[1,5-a]pyrazin-3-yl)piperidin-1-yl)but-2-yn-1-one] gave a pIC50 of 6.00 to 7.00.

The molecule `CC#CC(=O)N1CCCC[C@H]1c1nc(-c2ccc(Oc3cccc(OC)c3)cc2)c2c(C)nccn12` [Example 49, (S)-1-(2-(1-(4-(3-methoxyphenoxy)phenyl)-8-methylimidazo[1,5-a]pyrazin-3-yl)piperidin-1-yl)but-2-yn-1-one] had a pIC50 of 7.00 to 8.00.

`C=CC(=O)N1CCCC[C@H]1c1nc(-c2ccc(Oc3cccc(C)c3)cc2)c2cnccn12` [Example 50, (S)-1-(2-(1-(4-(m-tolyloxy)phenyl)imidazo[1,5-a]pyrazin-3-yl)piperidin-1-yl)prop-2-en-1-one] had a pIC50 of 7.00 to 8.00.

The molecule `CC#CC(=O)N1CCC[C@@H](c2nc(-c3ccc(Oc4cccc(OC)c4)cc3)c3cnccn23)C1` [Example 52, (R)-1-(3-(1-(4-(3-methoxyphenoxy)phenyl)imidazo[1,5-a]pyrazin-3-yl)piperidin-1-yl)but-2-yn-1-one] had a pIC50 of 6.00 to 7.00.

As to `CC#CC(=O)N1CCCC[C@H]1c1nc(-c2ccc(Oc3cccc(F)c3)cc2)c2c(C)nccn12` [Example 56, (S)-1-(2-(1-(4-(3-fluorophenoxy)phenyl)-8-methylimidazo[1,5-a]pyrazin-3-yl)piperidin-1-yl)but-2-yn-1-one], the pIC50 was 7.00 to 8.00.

The molecule `CC#CC(=O)N1CCC[C@H]1c1nc(-c2ccc(Oc3cccc(OC)c3F)cc2)c2c(C)nccn12` [Example 57, (S)-1-(2-(1-(4-(2-fluoro-3-methoxyphenoxy)phenyl)-8-methylimidazo[1,5-a]pyrazin-3-yl)pyrrolidin-1-yl)but-2-yn-1-one] gave a pIC50 of 7.00 to 8.00.

The molecule `C=CC(=O)N1CCCC[C@H]1c1nc(-c2ccc(Oc3cccc(OC)c3)cc2)c2cnccn12` [Example 58, (S)-1-(2-(1-(4-(3-methoxyphenoxy)phenyl)imidazo[1,5-a]pyrazin-3-yl)piperidin-1-yl)prop-2-en-1-one] gave a negative-log IC50 (pIC50) of 7.00 to 8.00.

Usually pIC50 stands for the IC50 on a negative log10 scale, so that one unit is a factor of ten. Low readings indicate a high IC50, high ones a low IC50.
